In PubChem BioAssay (NCI):
Several values for one entry are separate records, joined by “and”; a condition that tells them apart may be missing. Identical values can stand only once.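 Values below derive from 48-hour exposures of cells grown in 96-well plates, with endpoints linearly interpolated between the two concentrations bracketing the appropriate inhibition level. GI50 marks 50% less growth. Definition used: TGI = concentration required for complete inhibition of growth.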

How the values were obtained:
Experiment in all cases: NCI anticancer screen, dose series, 48 h
HOP-62 NSCLC = test system: HOP-62 NSCLC
IGROV1 ovarian = test system: IGROV1 ovarian
NCI-H522 lung = test system: NCI-H522 lung
DU-145 prostate = test system: DU-145 prostate
MALME-3M melanoma = test system: MALME-3M melanoma
NCI/ADR-RES ovarian = test system: NCI/ADR-RES ovarian
SN12C renal = test system: SN12C renal
HOP-92 NSCLC = test system: HOP-92 NSCLC
DMS 114 small cell lung = test system: DMS 114 small cell lung
DMS 273 small cell lung = test system: DMS 273 small cell lung
LXFL 529 NSCLC = test system: LXFL 529 NSCLC

Compound | GI50 (HOP-62 NSCLC) | TGI (HOP-62 NSCLC) | GI50 (IGROV1 ovarian) | TGI (IGROV1 ovarian) | GI50 (NCI-H522 lung) | TGI (NCI-H522 lung) | GI50 (DU-145 prostate) | TGI (DU-145 prostate) | GI50 (MALME-3M melanoma) | TGI (MALME-3M melanoma) | GI50 (NCI/ADR-RES ovarian) | TGI (NCI/ADR-RES ovarian) | GI50 (SN12C renal) | TGI (SN12C renal) | GI50 (HOP-92 NSCLC) | TGI (HOP-92 NSCLC) | TGI (DMS 114 small cell lung) | TGI (DMS 273 small cell lung) | TGI (LXFL 529 NSCLC)
CC(C)(CO)CNC(=O)c1ccc2[nH]c(O)c(N=Nc3ccc(S(N)(=O)=O)cc3)c2c1 | > 25 µM | > 25 µM | > 25 µM | > 25 µM | > 25 µM | > 25 µM | > 25 µM | > 25 µM | > 25 µM | > 25 µM | > 25 µM | > 25 µM | > 25 µM | > 25 µM | > 25 µM | > 25 µM | – | – | –
Cc1nn(-c2ccc(Cl)cc2)c2ncnc(N/N=C/c3ccccc3O)c12 | 0.538 µM and 0.322 µM | 17.1 µM and 9.11 µM | 0.534 µM and 0.485 µM | 10.5 µM and 8.48 µM | 0.874 µM and 0.321 µM | > 69.6 µM | 0.488 µM and 0.472 µM | 16.4 µM and > 100 µM | 1.19 µM and 0.508 µM | 9.56 µM and 7.85 µM | 0.372 µM and 0.356 µM | 16.9 µM and 17.4 µM | 0.804 µM and 0.473 µM | > 91.7 µM | 1.11 µM and 0.714 µM | 34.6 µM and 16.3 µM | – | – | –
CC(Br)C(=O)NC(CO)C(=O)O (stereo not given) | – | > 100 µM | – | > 100 µM | – | > 100 µM | – | > 100 µM | – | > 100 µM | – | > 100 µM | – | > 100 µM | – | > 100 µM | – | – | –
CN[C@@H](C)C(=O)N[C@H]1CN(S(=O)(=O)c2cccc(S(=O)(=O)N3CC[C@H]4CC[C@@H](C(=O)NC(c5ccccc5)c5ccccc5)N4C(=O)[C@@H](NC(=O)[C@H](C)NC)C3)c2)CC[C@H]2CC[C@@H](C(=O)NC(c3ccccc3)c3ccccc3)N2C1=O | 5.14 µM | > 100 µM | 21 µM | 44.5 µM | 2.43 µM | 34.8 µM | 15.1 µM | 28.3 µM | < 0.0104 µM | 0.0452 µM | > 100 µM | > 100 µM | 16.6 µM | 36 µM | 7.71 µM | 27.4 µM | – | – | –
CCCCCOc1ccc(/C=N/Nc2cc(C)nc3ccc(Cl)cc23)cc1 | 1.62 µM | 3.29 µM | 1.91 µM | 3.6 µM | 1.63 µM | 3.08 µM | 1.88 µM | 3.7 µM | 1.85 µM | 3.39 µM | 1.89 µM | 3.92 µM | 1.71 µM | 3.22 µM | 1.47 µM | 2.96 µM | – | – | –
N#CC1(c2ccc(NC(=O)c3cccnc3NCc3ccncc3)cc2)CCCC1 | 22.4 µM | 84.9 µM | 20.5 µM | > 89.8 µM | 7.6 µM | 35.1 µM | 18.8 µM | > 100 µM | 12.1 µM | 50.1 µM | 12.9 µM | 62.5 µM | 18 µM | > 100 µM | 19.3 µM | > 100 µM | – | – | –
COc1ccc2c(N)ncc(C#Cc3cc(C(=O)Nc4ccc(CN5CCN(C)CC5)c(C(F)(F)F)c4)cnc3C)c2c1 | 4.36 µM | 33.2 µM | 0.437 µM | 2.11 µM | 0.571 µM | 1.2 µM | 0.419 µM | 0.874 µM | 0.322 µM | 1.16 µM | 1.69 µM | 7.42 µM | 0.594 µM | 1.52 µM | 0.88 µM | 3.87 µM | – | – | –
O=C(NCCNCCO)c1ccc2c(c1)oc1cc3ccccc3c(=O)n12 | > 50 µM | > 50 µM | 16.5 µM | > 50 µM | 18.2 µM | > 50 µM | 41.2 µM | > 50 µM | 19.7 µM | > 50 µM | > 50 µM | > 50 µM | 29.1 µM | > 50 µM | 37.6 µM | > 50 µM | – | – | –
O=C(/C=C/C12c3ccccc3C(c3ccccc31)C1C(=O)NC(=O)C12)c1ccccn1 (stereo not given) | 1.75 µM | 4.15 µM | 1.36 µM | 6.53 µM | 1.52 µM | 3.37 µM | 1.02 µM | 2.21 µM | 2.14 µM | 5.05 µM | 2.81 µM | 10.1 µM | 1.48 µM | 3.44 µM | 1.98 µM | 4.54 µM | – | – | –
OC1(c2ccc(Cl)c(C(F)(F)F)c2)CCN(CCCC(c2ccc(F)cc2)c2ccc(F)cc2)CC1 | 0.945 µM | 1.7 µM | 0.975 µM | 2.05 µM | 0.902 µM | 1.79 µM | 0.897 µM | 1.66 µM | 0.934 µM | 1.74 µM | 0.863 µM | 1.77 µM | 0.831 µM | 1.54 µM | 0.448 µM | 1.17 µM | – | – | –
COC(=O)OC1C(O[C@H]2C[C@H]3[C@@H]4CC=C5C[C@@H](O)CC[C@]5(C)[C@H]4CC[C@]3(C)[C@H]2[C@H](C)C(=O)CCC(C)C)OCC(O)C1OC1OCC(O)C(O)C1OC(=O)c1ccc(OC)cc1 (stereo not given in full) | 0.0102 µM | 0.673 µM | 0.0106 µM | > 27.5 µM | 0.0146 µM | 0.183 µM | 0.0127 µM | 5.18 µM | 0.0184 µM | 0.769 µM | > 27.5 µM | > 27.5 µM | 1.46 µM | > 27.5 µM | 0.0492 µM | 1.87 µM | – | – | –
C[C@]12Cc3cn[nH]c3C(=O)C1CC[C@@H]1C2CC[C@@]2(C)C1CC[C@@H]2O (stereo not given in full) | – | > 100 µM | – | > 100 µM | – | > 100 µM | – | – | – | > 100 µM | – | – | – | > 100 µM | – | > 100 µM | > 100 µM | > 100 µM | > 100 µM
COc1ccc(OC)c(NCC(=O)n2nc(/C=C\c3ccc(O)c(OC)c3)cc2/C=C\c2ccc(O)c(OC)c2)c1 | 3.03 µM | 13 µM | 2.91 µM | 21 µM | 1.31 µM | 3.28 µM | 3.23 µM | 12.7 µM | 3.01 µM | 14.6 µM | 3.5 µM | > 100 µM | 2.52 µM | > 100 µM | 4.76 µM | 53.8 µM | – | – | –
Cn1c([N+](=O)[O-])cnc1C=C1C(=O)c2ccccc2C1=O | 10.7 µM | 29.5 µM | 3.56 µM | 18.5 µM | 1.89 µM | 4.37 µM | 6.45 µM | 19.6 µM | 3.44 µM | 11.6 µM | 5.34 µM | 83.9 µM | 3.83 µM | 16.1 µM | 1.65 µM | 6.1 µM | – | – | –
COc1ccc2c(c1)c(-c1nc(-c3c[nH]c4ncccc34)cs1)cn2CCCN1CCOCC1 | 2.24 µM | 7.18 µM | 2.09 µM | 8.69 µM | 2.07 µM | 6.03 µM | 3.15 µM | 11 µM | 1.39 µM | 3.14 µM | 3.02 µM | 11.3 µM | 3.16 µM | 15.6 µM | 2.42 µM | 6.82 µM | – | – | –
